Data taken from patent US12209087B2, “AKT1 modulators” (Alterome Therapeutics, Inc., priority 2022, dated 2025).

Molecular target: T1, full length AKT E17K (Homo sapiens, UniProt P31749, E17K)
T1 construct: host or cells: HEK-293 (ATCC CRL-1573)
Experiment: NanoBRET Target Engagement (TE) Assay
Format: cell-based
Conditions: competitive displacement of tracer in cells, read-out: AKT1 E17K IC50
In short: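 Compound and tracer incubated 2 h before luminescence at donor 450 nm and acceptor 600 nm, with extracellular signal inhibited. EC50 by sigmoidal variable-slope regression.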

T1 sequence (P31749 whole entry E17K): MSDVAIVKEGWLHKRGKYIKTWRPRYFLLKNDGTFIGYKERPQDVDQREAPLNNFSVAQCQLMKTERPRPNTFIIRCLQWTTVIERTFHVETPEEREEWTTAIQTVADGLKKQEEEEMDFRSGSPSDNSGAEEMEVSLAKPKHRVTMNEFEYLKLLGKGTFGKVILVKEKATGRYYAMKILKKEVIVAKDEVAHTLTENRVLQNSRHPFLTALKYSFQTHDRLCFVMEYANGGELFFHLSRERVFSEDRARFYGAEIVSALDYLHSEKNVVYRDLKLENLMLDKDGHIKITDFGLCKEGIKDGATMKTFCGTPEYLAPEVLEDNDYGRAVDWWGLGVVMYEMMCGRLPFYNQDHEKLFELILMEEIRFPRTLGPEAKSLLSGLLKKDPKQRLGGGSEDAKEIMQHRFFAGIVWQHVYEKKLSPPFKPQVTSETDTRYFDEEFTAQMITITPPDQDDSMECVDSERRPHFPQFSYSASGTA

Q: `C[C@@H]1CN(Cc2ccc(-n3c(-c4cccnc4N)nc4ccc(-c5ccccc5)nc43)cc2)C[C@H](C)N1c1cc(C#N)ncn1` [Example 380, 6-((2S,6R)-4-(4-(2-(2-Aminopyridin-3-yl)-5-phenyl-3H-imidazo[4,5-b]pyridin-3-yl)benzyl)-2,6-dimethylpiperazin-1-yl)pyrimidine-4-carbonitrile] was tested. Which IC50 did it give?
A: The IC50 was 600 to 10000 nM.

Q: `N#Cc1nccc(NC2CCN(Cc3ccc(-n4c(-c5cccnc5N)nc5cc(C#N)c(O)nc54)cc3)CC2)n1` [Example 599, 2-(2-Aminopyridin-3-yl)-3-(4-((4-((2-cyanopyrimidin-4-yl)amino)piperidin-1-yl)methyl)phenyl)-5-hydroxy-3H-imidazo[4,5-b]pyridine-6-carbonitrile] was tested. Which IC50 did it give?
A: Its IC50 is 600 to 10000 nM.

Q: With `N#Cc1nccc(NC2CCN(Cc3ccc(-n4c(-c5cccnc5N)nc5ccc(CO)nc54)cc3)CC2)n1` [Example 508, 4-((1-(4-(2-(2-Aminopyridin-3-yl)-5-(hydroxymethyl)-3H-imidazo[4,5-b]pyridin-3-yl)benzyl)piperidin-4-yl)amino)pyrimidine-2-carbonitrile] as the compound, how does the IC50 read?
A: Its IC50 is 15 to 60 nM.

Q: With `CCc1ccc(-c2ccc3nc(-c4cccnc4N)n(-c4ccc(CN5CCC(Nc6ccnc(C#N)n6)CC5)cc4)c3n2)nc1` [Example 647, 4-((1-(4-(2-(2-Aminopyridin-3-yl)-5-(5-ethylpyridin-2-yl)-3H-imidazo[4,5-b]pyridin-3-yl)benzyl)piperidin-4-yl)amino)pyrimidine-2-carbonitrile] as the compound, how does the IC50 read?
A: Its IC50 is less than 15 nM.

Q: For `N#Cc1nccc(NC2CCN(Cc3ccc(-n4c(-c5cccnc5N)nc5ccc(N6CCOC6=O)nc54)cc3)CC2)n1` [Example 403, 4-((1-(4-(2-(2-Aminopyridin-3-yl)-5-(2-oxooxazolidin-3-yl)-3H-imidazo[4,5-b]pyridin-3-yl)benzyl)piperidin-4-yl)amino)pyrimidine-2-carbonitrile], which IC50 is on record?
A: Its IC50 is less than 15 nM.

Q: How did the IC50 turn out when `N#Cc1nccc(N2CCN(Cc3ccc(-n4c(-c5cccnc5N)nc5ccc(C6=CCOCC6)nc54)cc3)CC2)n1` [Example 330, 4-(4-(4-(2-(2-Aminopyridin-3-yl)-5-(3,6-dihydro-2H-pyran-4-yl)-3H-imidazo[4,5-b]pyridin-3-yl)benzyl)piperazin-1-yl)pyrimidine-2-carbonitrile] was run?
A: The IC50 was less than 15 nM.

Q: Which IC50 does the source give for `C=Cc1ccc2nc(-c3cccnc3N)n(-c3ccc(CN4CCC(Nc5ccnc(C#N)n5)CC4)cc3)c2n1` [Example 454, 4-((1-(4-(2-(2-Aminopyridin-3-yl)-5-vinyl-3H-imidazo[4,5-b]pyridin-3-yl)benzyl)piperidin-4-yl)amino)pyrimidine-2-carbonitrile] here?
A: The IC50 was less than 15 nM.

Q: `CN(C)c1ccc2nc(-c3cccnc3N)n(-c3ccc(CN4CCC(Nc5ccnc(C#N)n5)CC4)cc3)c2n1` [Example 389, 4-((1-(4-(2-(2-Aminopyridin-3-yl)-5-(dimethylamino)-3H-imidazo[4,5-b]pyridin-3-yl)benzyl)piperidin-4-yl)amino)pyrimidine-2-carbonitrile] was tested. Which IC50 did it give?
A: Its IC50 is less than 15 nM.

Q: How did the IC50 turn out when `[2H]c1nn(C)nc1-c1ccc2nc(-c3nccnc3N)n(-c3ccc(CN4CCC(Nc5ccnc(C#N)n5)CC4)cc3)c2n1` [Example 634, 4-((1-(4-(2-(3-Aminopyrazin-2-yl)-5-(2-methyl-2H-1,2,3-triazol-4-yl-5-d)-3H-imidazo[4,5-b]pyridin-3-yl)benzyl)piperidin-4-yl)amino)pyrimidine-2-carbonitrile] was run?
A: Its IC50 is less than 15 nM.

Q: Which IC50 does the source give for `N#Cc1ccnc(N2CCN(Cc3ccc(-n4c(-c5cccnc5N)nc5ccc(-c6ccccc6C#N)nc54)cc3)CC2)n1` [Example 322, 2-(4-(4-(2-(2-Aminopyridin-3-yl)-5-(2-cyanophenyl)-3H-imidazo[4,5-b]pyridin-3-yl)benzyl)piperazin-1-yl)pyrimidine-4-carbonitrile] here?
A: The IC50 was 15 to 60 nM.

Q: With `N#Cc1ncnc(N2CCN(Cc3ccc(-n4c(-c5cccnc5N)nc5ccc(-c6ccc(Cl)cc6)nc54)cc3)CC2)n1` [Example 369, 4-(4-(4-(2-(2-Aminopyridin-3-yl)-5-(4-chlorophenyl)-3H-imidazo[4,5-b]pyridin-3-yl)benzyl)piperazin-1-yl)-1,3,5-triazine-2-carbonitrile] as the compound, how does the IC50 read?
A: The IC50 was 15 to 60 nM.

Q: `Cn1cnnc1-c1ccc2nc(-c3cccnc3N)n(-c3ccc(CN4CCC(Nc5ccnc(C#N)n5)CC4)cc3)c2n1` [Example 569, 4-((1-(4-(2-(2-Aminopyridin-3-yl)-5-(4-methyl-4H-1,2,4-triazol-3-yl)-3H-imidazo[4,5-b]pyridin-3-yl)benzyl)piperidin-4-yl)amino)pyrimidine-2-carbonitrile] was tested. Which IC50 did it give?
A: Its IC50 is 60 to 600 nM.

Same assay, conditions: competitive tracer displacement in living cells, read-out: AKT1 E17K IC50

Q: How did the IC50 turn out when `N#Cc1nccc(N2CCN(Cc3ccc(-n4c(-c5cccnc5N)nc5ccc(-c6cccc(F)c6)nc54)cc3)CC2)n1` [Example 295, 4-(4-(4-(2-(2-Aminopyridin-3-yl)-5-(3-fluorophenyl)-3H-imidazo[4,5-b]pyridin-3-yl)benzyl)piperazin-1-yl)pyrimidine-2-carbonitrile] was run?
A: The IC50 was less than 15 nM.

Q: For `CC(=O)Nc1cccc(-c2ccc3nc(-c4cccnc4N)n(-c4ccc(CN5CCN(c6ccc(C#N)nc6)CC5)cc4)c3n2)c1` [Example 38, N-(3-(2-(2-Aminopyridin-3-yl)-3-(4-((4-(6-cyanopyridin-3-yl)piperazin-1-yl)methyl)phenyl)-3H-imidazo[4,5-b]pyridin-5-yl)phenyl)acetamide], which IC50 is on record?
A: The IC50 was 60 to 600 nM.

Q: Which IC50 does the source give for `N#Cc1cccc(C(=O)NCc2ccc(-n3c(-c4cccnc4N)nc4cccnc43)cc2)n1` [Example 108, N-(4-(2-(2-Aminopyridin-3-yl)-3H-imidazo[4,5-b]pyridin-3-yl)benzyl)-6-cyanopicolinamide] here?
A: Its IC50 is 600 to 10000 nM.

Q: Which IC50 does the source give for `N#Cc1ccc(NCc2ccc(-n3c(-c4cccnc4N)nc4cccnc43)cc2)cn1` [Example 128, 5-((4-(2-(2-Aminopyridin-3-yl)-3H-imidazo[4,5-b]pyridin-3-yl)benzyl)amino)picolinonitrile] here?
A: Its IC50 is 600 to 10000 nM.

Q: For `N#Cc1ncnc(N2CC3(CN(Cc4ccc(-n5c(-c6cccnc6N)nc6ccc(-c7ccccc7)nc65)cc4)C3)C2)n1` [Example 303, 4-(6-(4-(2-(2-Aminopyridin-3-yl)-5-phenyl-3H-imidazo[4,5-b]pyridin-3-yl)benzyl)-2,6-diazaspiro[3.3]heptan-2-yl)-1,3,5-triazine-2-carbonitrile], which IC50 is on record?
A: Its IC50 is less than 15 nM.

Q: For `CC(C)c1ccc2nc(-c3cccnc3N)n(-c3ccc(CN4CCC(Nc5ccnc(C#N)n5)CC4)cc3)c2n1` [Example 286, 4-((1-(4-(2-(2-Aminopyridin-3-yl)-5-isopropyl-3H-imidazo[4,5-b]pyridin-3-yl)benzyl)piperidin-4-yl)amino)pyrimidine-2-carbonitrile], which IC50 is on record?
A: Its IC50 is less than 15 nM.

Q: How did the IC50 turn out when `N#Cc1cccc(C(=O)N2CCN(Cc3ccc(-n4c(-c5cccnc5N)nc5cccnc54)cc3)CC2)n1` [Example 69, 6-(4-(4-(2-(2-Aminopyridin-3-yl)-3H-imidazo[4,5-b]pyridin-3-yl)benzyl)piperazine-1-carbonyl)picolinonitrile] was run?
A: Its IC50 is 600 to 10000 nM.

Q: `N#Cc1ccnc(N2CCN(Cc3ccc(-n4c(-c5cccnc5N)nc5cccnc54)cc3)CC2)c1` [Example 17, 2-(4-(4-(2-(2-Aminopyridin-3-yl)-3H-imidazo[4,5-b]pyridin-3-yl)benzyl)piperazin-1-yl)isonicotinonitrile] was tested. Which IC50 did it give?
A: Its IC50 is 600 to 10000 nM.

Q: `N#Cc1cc(C(=O)NC2CCN(Cc3ccc(-n4c(-c5cccnc5N)nc5cccnc54)cc3)CC2)ccn1` [Example 23, N-(1-(4-(2-(2-aminopyridin-3-yl)-3H-imidazo[4,5-b]pyridin-3-yl)benzyl)piperidin-4-yl)-2-cyanoisonicotinamide] was tested. Which IC50 did it give?
A: The IC50 was 600 to 10000 nM.

Q: How did the IC50 turn out when `CC(=O)Nc1cccc(-c2ccc3nc(-c4cccnc4N)n(-c4ccc(CN5CCN(c6ccnc(C#N)c6)CC5)cc4)c3n2)c1` [Example 37, N-(3-(2-(2-Aminopyridin-3-yl)-3-(4-((4-(2-cyanopyridin-4-yl)piperazin-1-yl)methyl)phenyl)-3H-imidazo[4,5-b]pyridin-5-yl)phenyl)acetamide] was run?
A: Its IC50 is 15 to 60 nM.

Q: How did the IC50 turn out when `N#Cc1ccncc1C(=O)N1CCN(Cc2ccc(-n3c(-c4cccnc4N)nc4cccnc43)cc2)CC1` [Example 155, 3-(4-(4-(2-(2-Aminopyridin-3-yl)-3H-imidazo[4,5-b]pyridin-3-yl)benzyl)piperazine-1-carbonyl)isonicotinonitrile] was run?
A: The IC50 was 600 to 10000 nM.

Q: For `CN(c1ccnc(C#N)n1)C1CCN(Cc2ccc(-n3c(-c4cccnc4N)nc4ccc(-c5ccccc5)nc43)cc2)CC1` [Example 156, 4-((1-(4-(2-(2-Aminopyridin-3-yl)-5-phenyl-3H-imidazo[4,5-b]pyridin-3-yl)benzyl)piperidin-4-yl)(methyl)amino)pyrimidine-2-carbonitrile], which IC50 is on record?
A: The IC50 was 15 to 60 nM.

Q: How did the IC50 turn out when `N#Cc1ccnc(C(=O)NC2CCN(Cc3ccc(-n4c(-c5cccnc5N)nc5cccnc54)cc3)CC2)c1` [Example 31, N-(1-(4-(2-(2-Aminopyridin-3-yl)-3H-imidazo[4,5-b]pyridin-3-yl)benzyl)piperidin-4-yl)-4-cyanopicolinamide] was run?
A: The IC50 was 600 to 10000 nM.

Q: Which IC50 does the source give for `[2H]C([2H])(c1ccc(-n2c(-c3cccnc3N)nc3ccc(-c4ccccc4)nc32)cc1)N1CCC(Nc2ccnc(C#N)n2)CC1` [Example 222, 4-((1-((4-(2-(2-Aminopyridin-3-yl)-5-phenyl-3H-imidazo[4,5-h]pyridin-3-yl)phenyl)methyl-d2)piperidin-4-yl)amino)pyrimidine-2-carbonitrile] here?
A: Its IC50 is less than 15 nM.

Q: With `C[C@H]1CN(Cc2ccc(-n3c(-c4cccnc4N)nc4ccc(-c5ccccc5)nc43)cc2)C[C@H](C)N1c1ncnc(C#N)n1` [Example 275, 4-((2S,6S)-4-(4-(2-(2-Aminopyridin-3-yl)-5-phenyl-3H-imidazo[4,5-b]pyridin-3-yl)benzyl)-2,6-dimethylpiperazin-1-yl)-1,3,5-triazine-2-carbonitrile] as the compound, how does the IC50 read?
A: The IC50 was less than 15 nM.

Q: With `N#Cc1cncc(N2CCN(Cc3ccc(-n4c(-c5cccnc5N)nc5ccc(-c6ccccc6)nc54)cc3)CC2)c1` [Example 65, 5-(4-(4-(2-(2-Aminopyridin-3-yl)-5-phenyl-3H-imidazo[4,5-b]pyridin-3-yl)benzyl)piperazin-1-yl)nicotinonitrile] as the compound, how does the IC50 read?
A: Its IC50 is 60 to 600 nM.
